In US20250170130A1, “MODULATORS OF MYC FAMILY PROTO-ONCOGENE PROTEIN” (Nalo Therapeutics, priority 2022, published 2025):

Key:
MycN = biological target: T1, MycN (Homo sapiens, UniProt P04198); assay: Degradation of MycN protein in SK-N-BE(2) cells, JESS/Western blot of lysates; assay type: cell-based; settings: SKNBE2, 24 h, SKNBE2 cells, 24 h; for Dmax at 0.5 µM: read-out: % Degradation of MycN (SKNBE2) 24 h, 0.5 μM; for Dmax at 1 µM: read-out: % Degradation of MycN (SKNBE2) 24 h, 1 μM; for Dmax at 3 µM: read-out: % Degradation of MycN (SKNBE2) 24 h, 3 μM; for Dmax at 6 µM: read-out: % Degradation of MycN (SKNBE2) 24 h, 6 μM
T1 construct: endogenous in cells; host or cells: SK-N-BE(2)
T1 sequence (P04198 1-464): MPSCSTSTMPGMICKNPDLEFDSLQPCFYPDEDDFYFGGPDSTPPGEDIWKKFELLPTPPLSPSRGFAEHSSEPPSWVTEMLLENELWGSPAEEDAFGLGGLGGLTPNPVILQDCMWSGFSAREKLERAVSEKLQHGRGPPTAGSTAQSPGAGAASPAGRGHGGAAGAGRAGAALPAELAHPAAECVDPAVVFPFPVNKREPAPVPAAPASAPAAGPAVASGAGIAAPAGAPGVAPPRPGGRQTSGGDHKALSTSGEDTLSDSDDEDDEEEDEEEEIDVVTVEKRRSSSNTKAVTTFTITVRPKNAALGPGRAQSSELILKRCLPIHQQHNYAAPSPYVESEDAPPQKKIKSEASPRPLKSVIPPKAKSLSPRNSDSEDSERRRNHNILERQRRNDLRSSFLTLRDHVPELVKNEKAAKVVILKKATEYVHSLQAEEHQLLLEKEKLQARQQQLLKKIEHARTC
How it was run: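 SK-N-BE(2) adherent cells (5E5 per well of a 6 well dish) were grown 24 hrs, then exposed to compounds diluted 1 in 20 in media, with DMSO controls, for 24 hrs. Cells were scraped, pelleted, PBS washed and lysed in RIPA buffer cocktail; after BCA protein quantitation, n-myc was detected by chemiluminescence on JESS/Western blot with tubulin and GAPDH loading controls read in the near infra red channel.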

MycC = biological target: T2, MycC (Homo sapiens, UniProt P01106); assay: Degradation of MycC protein in L363 cells, JESS/Western blot of lysates; assay type: cell-based; settings: L-363, 24 h, L-363 cells, 24 h; for Dmax at 0.5 µM: read-out: % Degradation of MycC (L-363) 24 h, 0.5 μM; for Dmax at 6 µM: read-out: % Degradation of MycC (L-363) 24 h, 6 μM; for Dmax at 3 µM: read-out: % Degradation of MycC (L-363) 24 h, 3 μM; for Dmax at 1 µM: read-out: % Degradation of MycC (L-363) 24 h, 1 μM
T2 construct: endogenous in cells; host or cells: L363
How it was run: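 L363 suspension cells were seeded at 1E6 cells per well and exposed to compound (stock 10 mM in DMSO) for 24 hrs. Cells were collected, spun down, rinsed with PBS, lysed in RIPA buffer cocktail on ice, clarified and kept at −80 degrees. Lysate protein was quantified by BCA, and c-myc was measured on JESS by chemiluminescence with tubulin and GAPDH loading controls in the NIR channel.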

T2 sequence (P01106 whole entry): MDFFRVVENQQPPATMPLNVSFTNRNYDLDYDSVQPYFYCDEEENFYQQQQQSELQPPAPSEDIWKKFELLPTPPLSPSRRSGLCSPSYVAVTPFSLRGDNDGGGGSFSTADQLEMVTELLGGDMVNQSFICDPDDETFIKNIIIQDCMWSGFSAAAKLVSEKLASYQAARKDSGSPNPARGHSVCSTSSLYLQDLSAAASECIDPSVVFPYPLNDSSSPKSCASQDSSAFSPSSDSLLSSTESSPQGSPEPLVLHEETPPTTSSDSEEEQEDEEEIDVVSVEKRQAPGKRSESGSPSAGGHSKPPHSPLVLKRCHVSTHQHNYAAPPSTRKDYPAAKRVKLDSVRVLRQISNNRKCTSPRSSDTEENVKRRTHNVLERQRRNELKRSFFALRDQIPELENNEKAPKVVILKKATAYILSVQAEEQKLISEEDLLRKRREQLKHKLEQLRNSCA

SMILES | Dmax at 0.5 µM (MycN) | Dmax at 1 µM (MycN) | Dmax at 3 µM (MycN) | Dmax at 6 µM (MycN) | Dmax at 0.5 µM (MycC) | Dmax at 6 µM (MycC) | Dmax at 3 µM (MycC) | Dmax at 1 µM (MycC)
CNCCCN(C)c1nccc(Nc2cc(C3CC3)[nH]n2)n1 [Compound 101, N^4-(5-Cyclopropyl-1H-pyrazol-3-yl)-N^2-methyl-N^2-[3-(methylamino)propyl]pyrimidine-2,4-diamine] | < 20% | < 20% | < 20% | 20 to 49% | 20 to 49% | 20 to 49% | 20 to 49% | 20 to 49%
CC(F)(F)CNCC12CC(C1)N(c1nccc(Nc3cc(C4CCCC4)[nH]n3)n1)C2 [Compound 103, N-(5-Cyclopentyl-1H-pyrazol-3-yl)-2-[4-[(2,2-difluoropropylamino)methyl]-2-azabicyclo[2.1.1]hexan-2-yl]pyrimidin-4-amine] | < 20% | 20 to 49% | 80 to 100% | 80 to 100% | < 20% | 80 to 100% | – | < 20%
c1cc(Nc2cc(C3CC3)[nH]n2)nc(N2CC3(CCCNC3)C2)n1 [Compound 105, N-(5-Cyclopropyl-1H-pyrazol-3-yl)-2-(2,8-diazaspiro[3.5]nonan-2-yl)pyrimidin-4-amine] | < 20% | < 20% | < 20% | 80 to 100% | – | 80 to 100% | < 20% | –
c1cc(Nc2cc(C3CCCC3)[nH]n2)nc(N2CC3(CCCNC3)C2)n1 [Compound 106, N-(5-Cyclopentyl-1H-pyrazol-3-yl)-2-(2,8-diazaspiro[3.5]nonan-2-yl)pyrimidin-4-amine] | < 20% | < 20% | 20 to 49% | 20 to 49% | < 20% | < 20% | < 20% | < 20%
NC[C@H]1CCCN(c2nccc(Nc3cc(C4CCCC4)[nH]n3)n2)C1 [Compound 108, 2-[(3R)-3-(Aminomethyl)-1-piperidyl]-N-(5-cyclopentyl-1H-pyrazol-3-yl)pyrimidin-4-amine] | < 20% | 50 to 79% | 50 to 79% | 80 to 100% | – | 80 to 100% | 80 to 100% | –

Now from value to compound:

Dmax at 0.5 µM (MycN) | Dmax at 1 µM (MycN) | Dmax at 3 µM (MycN) | Dmax at 6 µM (MycN) | Dmax at 0.5 µM (MycC) | Dmax at 6 µM (MycC) | Dmax at 3 µM (MycC) | Dmax at 1 µM (MycC) | SMILES
< 20% | < 20% | 20 to 49% | 50 to 79% | < 20% | < 20% | – | – | CN1CC2(CCN(c3nccc(Nc4cc(C5CCCC5)[nH]n4)n3)C2)C1 [Compound 85, N-(5-cyclopentyl-1H-pyrazol-3-yl)-2-(2-methyl-2,6-diazaspiro[3.4]octan-6-yl)pyrimidin-4-amine]
20 to 49% | 20 to 49% | 80 to 100% | 80 to 100% | – | 80 to 100% | 80 to 100% | – | CN1CC2(CCN(c3nccc(Nc4cc(C5CCCC5)[nH]n4)n3)CC2)C1 [Compound 86]
– | < 20% | 20 to 49% | 20 to 49% | – | 20 to 49% | – | < 20% | CN1CCCC2(C1)CN(c1nccc(Nc3cc(C4CC4)[nH]n3)n1)C2 [Compound 104, N-(5-cyclopropyl-1H-pyrazol-3-yl)-2-(8-methyl-2,8-diazaspiro[3.5]nonan-2-yl)pyrimidin-4-amine]
< 20% | 20 to 49% | 20 to 49% | 20 to 49% | – | < 20% | < 20% | – | CN1CC2(CCCN(c3nccc(Nc4cc(C5CCCC5)[nH]n4)n3)C2)C1 [Compound 107, N-(5-cyclopentyl-1H-pyrazol-3-yl)-2-(2-methyl-2,6-diazaspiro[3.5]nonan-6-yl)pyrimidin-4-amine]
